In EP2987533B1, “7-substituted piperazin-1-yl fluoroquinolone compounds, their use in the treatment of cancer, pharmaceutical compositions and a method for preparation” (priority 2014, dated 2016):

Key:
[1] = system: 60 human tumor cell line panel; experiment: NCI 60 cell line one-dose SRB primary anticancer assay; type: cell-based; conditions: 60 cell lines assay in one dose, 10µM (title; head prints 10.0 mM), 48 h
Protocol: (§1) A primary anticancer assay was performed for an approximately 60 human tumor cell line panel derived from nine neoplastic diseases, in accordance with the protocol of the Drug Evaluation Branch, National Cancer Institute, Bethesda, MD (Monks A. et al., J. Natl. Cancer Inst 1991, 83, 757-766; Boyd M.R. and Paull K.D., Drug. Dev. Res. 1995, 34, 91-109; Shoemaker R.H., Nat. Rev. Cancer 2006, 6, 813-823). Briefly, tested compounds were added to the culture at a single concentration (10^-5M), and the cultures were incubated for 48 h. End point determinations were made with a protein binding dye, sulforhodamine B (SRB). The results for each tested compound were reported as the growth percentage of the treated cells when compared to that of the untreated control cells. The percentage growth was evaluated spectrophotometrically versus controls not treated with test agents.

A498 = experiment: NCI one-dose SRB growth assay; type: cell-based; conditions: Homo sapiens; A498 (Renal Cancer), 10^-5 M, 48 h; read-out: % Growth Inhibition (GI %)
Protocol: as §1

A549/ATCC = experiment: NCI one-dose SRB growth assay; type: cell-based; conditions: Homo sapiens; A549/ATCC (Non-Small Cell Lung Cancer), 10^-5 M, 48 h; read-out: % Growth Inhibition (GI %)
Protocol: as §1

BT-549 = experiment: NCI one-dose SRB growth assay; type: cell-based; conditions: Homo sapiens; BT-549 (Breast Cancer), 10^-5 M, 48 h; read-out: % Growth Inhibition (GI %)
Protocol: as §1

COLO 205 = experiment: NCI one-dose SRB growth assay; type: cell-based; conditions: Homo sapiens; COLO 205 (Colon Cancer), 10^-5 M, 48 h; read-out: % Growth Inhibition (GI %)
Protocol: as §1

HOP-92 = experiment: NCI one-dose SRB growth assay; type: cell-based; conditions: Homo sapiens; HOP-92 (Non-Small Cell Lung Cancer), 10^-5 M, 48 h; read-out: % Growth Inhibition (GI %)
Protocol: as §1

HT29 = experiment: NCI one-dose SRB growth assay; type: cell-based; conditions: Homo sapiens, HT-29; HT29 (Colon Cancer), 10^-5 M, 48 h; read-out: % Growth Inhibition (GI %)
Protocol: as §1

LOX IMVI = experiment: NCI one-dose SRB growth assay; type: cell-based; conditions: Homo sapiens; LOX IMVI (Melanoma), 10^-5 M, 48 h; read-out: % Growth Inhibition (GI %)
Protocol: as §1

MALME-3M = experiment: NCI one-dose SRB growth assay; type: cell-based; conditions: Homo sapiens; MALME-3M (Melanoma), 10^-5 M, 48 h; read-out: % Growth Inhibition (GI %)
Protocol: as §1

MDA-MB-435 = experiment: NCI one-dose SRB growth assay; type: cell-based; conditions: Homo sapiens; MDA-MB-435 (Melanoma), 10^-5 M, 48 h; read-out: % Growth Inhibition (GI %)
Protocol: as §1

MDA-MB-468 = experiment: NCI one-dose SRB growth assay; type: cell-based; conditions: Homo sapiens; MDA-MB-468 (Breast Cancer), 10^-5 M, 48 h; read-out: % Growth Inhibition (GI %)
Protocol: as §1

NCI-H23 = experiment: NCI one-dose SRB growth assay; type: cell-based; conditions: Homo sapiens; NCI-H23 (Non-Small Cell Lung Cancer), 10^-5 M, 48 h; read-out: % Growth Inhibition (GI %)
Protocol: as §1

OVCAR-8 = experiment: NCI one-dose SRB growth assay; type: cell-based; conditions: Homo sapiens; OVCAR-8 (Ovarian Cancer), 10^-5 M, 48 h; read-out: % Growth Inhibition (GI %)
Protocol: as §1

RXF 393 = experiment: NCI one-dose SRB growth assay; type: cell-based; conditions: Homo sapiens; RXF 393 (Renal Cancer), 10^-5 M, 48 h; read-out: % Growth Inhibition (GI %)
Protocol: as §1

SNB-75 = experiment: NCI one-dose SRB growth assay; type: cell-based; conditions: Homo sapiens; SNB-75 (CNS Cancer), 10^-5 M, 48 h; read-out: % Growth Inhibition (GI %)
Protocol: as §1

T-47D = experiment: NCI one-dose SRB growth assay; type: cell-based; conditions: Homo sapiens, T47D; T-47D (Breast Cancer), 10^-5 M, 48 h; read-out: % Growth Inhibition (GI %)
Protocol: as §1

UACC-257 = experiment: NCI one-dose SRB growth assay; type: cell-based; conditions: Homo sapiens; UACC-257 (Melanoma), 10^-5 M, 48 h; read-out: % Growth Inhibition (GI %)
Protocol: as §1

[2] = system: full panel of about 60 human tumor cell lines; experiment: NCI five-dose SRB assay, full panel mean; conditions: 48 h
leukemia = experiment: NCI five-dose SRB assay, subpanel average; conditions: 48 h
NSC lung cancer = experiment: NCI five-dose SRB assay, subpanel average; conditions: 48 h
colon cancer = experiment: NCI five-dose SRB assay, subpanel average; conditions: 48 h
CNS cancer = experiment: NCI five-dose SRB assay, subpanel average; conditions: 48 h
melanoma = experiment: NCI five-dose SRB assay, subpanel average; conditions: 48 h
ovarian cancer = experiment: NCI five-dose SRB assay, subpanel average; conditions: 48 h
renal cancer = experiment: NCI five-dose SRB assay, subpanel average; conditions: 48 h
prostate cancer = experiment: NCI five-dose SRB assay, subpanel average; conditions: 48 h
[3] = Homo sapiens, read-out: GI50 (median growth inhibitory)
[4] = Homo sapiens, read-out: LC50 (median lethal)

## CCn1cc(C(=O)O)c(=O)c2cc(F)c(N3CCN(S(=O)(=O)c4ccc(Cl)cc4Cl)CC3)cc21 [Compound 2a]
[1]
  PCE (Positive cytotoxic effect: ratio between number of cell lines with percentage growth inhibition from 10 to >100 and total number of cell lines): 56/58
  RGI % (Range of growth inhibition percentage): >100.0 to 25.22%
[1]; Homo sapiens, read-out: MGI % (Mean growth inhibition percentage)
  inhibition at 10 µM: 94.2%
A498
  inhibition at 10 µM: > 100%
A549/ATCC
  inhibition at 10 µM: 98%
BT-549
  inhibition at 10 µM: > 100%
COLO 205
  inhibition at 10 µM: > 100%
HOP-92
  inhibition at 10 µM: > 100%
HT29
  inhibition at 10 µM: 98.1%
LOX IMVI
  inhibition at 10 µM: > 100%
MALME-3M
  inhibition at 10 µM: > 100%
MDA-MB-435
  inhibition at 10 µM: 87.2%
MDA-MB-468
  inhibition at 10 µM: > 100%
NCI-H23
  inhibition at 10 µM: > 100%
OVCAR-8
  inhibition at 10 µM: 94.2%
RXF 393
  inhibition at 10 µM: 72.1%
SNB-75
  inhibition at 10 µM: 25.2%
T-47D
  inhibition at 10 µM: 98.3%
UACC-257
  inhibition at 10 µM: > 100%
[2]; Homo sapiens, 60 cell, read-out: LC50 MG-MID (Full panel mean-graph midpoint)
  CC50: 57.5 µM
[2]; Homo sapiens, read-out: GI50 MG-MID (Full panel mean-graph midpoint)
  GI50: 2.63 µM
[2]; full panel, five concentrations
  TGI MG-MID (Full panel mean-graph midpoint): 14.12 µM
leukemia; [3]
  GI50: 3.07 µM
leukemia; [4]
  CC50: > 100 µM
leukemia; average over leukemia subpanel, five concentrations
  TGI (total growth inhibitory): 62.54 µM
NSC lung cancer; [3]
  GI50: 2.49 µM
NSC lung cancer; [4]
  CC50: 73.2 µM
NSC lung cancer; average over NSC lung cancer subpanel, five concentrations
  TGI (total growth inhibitory): 19.61 µM
Colon cancer; [3]
  GI50: 3.15 µM
Colon cancer; [4]
  CC50: 77.2 µM
Colon cancer; average over colon cancer subpanel, five concentrations
  TGI (total growth inhibitory): 72.89 µM
CNS cancer; [3]
  GI50: 3.03 µM
CNS cancer; [4]
  CC50: 77.2 µM
CNS cancer; average over CNS cancer subpanel, five concentrations
  TGI (total growth inhibitory): 34.84 µM
melanoma; [3]
  GI50: 2.3 µM
melanoma; [4]
  CC50: 39.5 µM
melanoma; average over melanoma subpanel, five concentrations
  TGI (total growth inhibitory): 6.36 µM
Ovarian cancer; [3]
  GI50: 2.96 µM
Ovarian cancer; [4]
  CC50: 76.7 µM
Ovarian cancer; average over ovarian cancer subpanel, five concentrations
  TGI (total growth inhibitory): 39.54 µM
Renal cancer; [3]
  GI50: 2.73 µM
Renal cancer; [4]
  CC50: 82.5 µM
Renal cancer; average over renal cancer subpanel, five concentrations
  TGI (total growth inhibitory): 23.97 µM
Prostate cancer; [3]
  GI50: 2.62 µM
Prostate cancer; [4]
  CC50: > 100 µM
Prostate cancer; average over prostate cancer subpanel, five concentrations
  TGI (total growth inhibitory): 8.72 µM
